Earlier results, collected in US20120189739A1, “Naturally-Sweetened Reduced-Calorie Base Syrup Compositions and Compositions Sweetened Therewith” (IMPERIAL SUGAR COMPANY, priority 2010, published 2012).

Details: Prakash et al. 2008; Kinghorn et al. 1999

Structure (SMILES) | times sweeter than sucrose
C=C1C[C@@]23CC[C@H]4[C@@](C)(CCC[C@@]4(C)C(=O)O[C@@H]4O[C@H](CO)[C@@H](O)[C@H](O)[C@H]4O)[C@@H]2CC[C@]1(O[C@@H]1O[C@H](CO)[C@@H](O)[C@H](O[C@@H]2O[C@H](CO)[C@@H](O)[C@H](O)[C@H]2O)[C@H]1O[C@@H]1O[C@H](CO)[C@@H](O)[C@H](O)[C@H]1O)C3 [rebaudioside A] | 200-300 times
C=C1C[C@@]23CC[C@H]4[C@@](C)(CCC[C@@]4(C)C(=O)O[C@@H]4O[C@H](CO)[C@@H](O)[C@H](O)[C@H]4O)[C@@H]2CC[C@]1(O[C@@H]1O[C@H](CO)[C@@H](O)[C@H](O)[C@H]1O[C@@H]1O[C@H](CO)[C@@H](O)[C@H](O)[C@H]1O)C3 [stevioside] | about 200 times
